The source of these data is US10464929B2, “Organic molecules for terahertz tagging applications” (Council of Scientific & Industrial Research, priority 2014, dated 2019).

The nature of this series: Solubility of the THz molecular tags in various solvents. The class given is physicochemical.

As to `O=C(Nc1ccccc1)Nc1cccc(NC(=O)c2ccccc2)n1` [PhU—Ph—AP, N-(6-(3-phenylureido)pyridin-2-yl)benzamide], the “Solubility in Diethyl Ether” value (solvent Diethyl Ether) is on record as “Turbid”. For the same compound, where the note is “solvent Toluene”, the “Solubility in Toluene” value is “Turbid”.
For `O=C(NCCNC(=O)Nc1ccccc1)Nc1ccccc1` [PhU—C2—UPh, 1,1′-(ethane-1,2-diyl)bis(3-phenylurea)], for the setting “solvent THF (tetrahydrofuran)”, the “Solubility in THF” value is on record as “Turbid”.
